Measured values from patent US20130324522A1, “INSECT ODORANT RECEPTOR ANTAGONISTS” (THE ROCKEFELLER UNIVERSITY, priority 2010, published 2013).
Like-named read-outs stand apart in the source and are kept apart here.

Assays:
Assay type in all cases: cell-based
[1] = target: T1, OR1/OR7 (Anopheles gambiae, UniProt Q7QCC7+Q8WTE7); assay: Ca2+-imaging of stable HEK293T cell line OR1/OR7
T1 construct: Full-length cDNAs for mosquito (Anopheles gambiae) odorant receptor (OR1, OR2, OR7, OR8, OR28); expressed in transfected cells
T1 sequence (Q8WTE7 1-417): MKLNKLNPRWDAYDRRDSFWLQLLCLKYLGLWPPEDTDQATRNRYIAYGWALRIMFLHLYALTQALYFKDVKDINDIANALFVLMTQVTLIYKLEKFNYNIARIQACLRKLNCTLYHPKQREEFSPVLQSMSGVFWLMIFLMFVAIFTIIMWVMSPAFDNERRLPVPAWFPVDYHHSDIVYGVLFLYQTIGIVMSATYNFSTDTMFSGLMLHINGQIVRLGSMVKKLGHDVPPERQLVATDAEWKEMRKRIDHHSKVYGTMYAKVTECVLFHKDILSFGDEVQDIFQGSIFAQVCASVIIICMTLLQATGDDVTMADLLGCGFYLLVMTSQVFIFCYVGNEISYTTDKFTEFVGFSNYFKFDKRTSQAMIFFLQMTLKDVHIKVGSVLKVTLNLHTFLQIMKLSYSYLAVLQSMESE
T1 sequence (Q7QCC7 1-478): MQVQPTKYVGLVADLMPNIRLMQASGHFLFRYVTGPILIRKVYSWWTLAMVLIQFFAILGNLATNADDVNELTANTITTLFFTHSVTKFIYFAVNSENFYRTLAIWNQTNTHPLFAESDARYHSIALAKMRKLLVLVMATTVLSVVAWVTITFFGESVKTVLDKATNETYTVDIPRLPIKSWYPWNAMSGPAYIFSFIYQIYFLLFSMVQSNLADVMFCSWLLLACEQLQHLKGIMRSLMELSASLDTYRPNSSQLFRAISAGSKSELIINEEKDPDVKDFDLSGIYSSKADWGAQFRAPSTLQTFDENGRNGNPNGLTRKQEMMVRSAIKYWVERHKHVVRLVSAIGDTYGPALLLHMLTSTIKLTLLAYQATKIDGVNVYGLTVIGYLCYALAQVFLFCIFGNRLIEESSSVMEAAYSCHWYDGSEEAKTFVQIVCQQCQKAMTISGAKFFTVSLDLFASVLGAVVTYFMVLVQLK
Method: (§1) Full-length cDNAs for mosquito (Anopheles gambiae) odorant receptor (OR1, OR2, OR7, OR8, OR28), and fly (Drosophila melanogaster) odorant receptor (Or47a, Or83b), mouse TRP channel (TRPM8), and mouse serotonin receptor (5HT3) were obtained and subcloned into mammalian expression vectors. The following mammalian expression vectors were used:
(§2) Stable cell lines OR1/OR7, OR2/OR7, OR8/OR7, OR10/OR7, OR28/OR7 and TRPM8 were generated from HEK293T cells. HEK293T-based cell lines were cultured in DMEM supplemented with these additional antibiotics: 6 μg/mL blasticidin and 1 μg/mL puromycin, with the exception of the TRPM8 cell lines, which was cultured in DMEM supplemented with 1 μg/mL puromycin.
(§3) Cells were trypsinized and split into 35 mm dishes one day before transfection. Confluent cells (60-70%) in 35 mm dishes were transfected with 1 μg of insect OR(X) plasmids in pME18s-bla and 1 μg of OR7-pME18s-puro using lipofectamine 2000. For Anopheles odorant receptors, two plasmids were co-transfected into HEK cells: the ligand-specific receptor (OR1, OR2, OR8, OR28) and the corresponding olfactory co-receptor: OR7. Cell lines containing TRPM8 were transfected with single plasmid.
(§4) Stable cell lines were cultured in 10 cm dishes, and confluent cells (70-80%) were trypsinized. 10,000 cells/20 μL were transferred into each well of 384-well plates coated with poly-D-lysine, and cultured for 2 days. For Flip-In T-Rex cells (cell lines expressing Or47a/Or83b and 5HT3), 5 μL of tetracycline (5 μg/mL) were added 1 day before the assay. 20 μL of Ca-4 dye was loaded into each well for 1.5 hr at room temperature in the dark, and the dye-loaded plates were subjected to Ca^2+-imaging using a Hamamatsu FDSS6000 real time fluorescence plate reader. Odorant solutions (9× final concentration) were prepared by dissolving 1M stock solutions into Hank's Buffered Salt Solution (HBSS), and 30 μL of odor solution was transferred to each well in 384-well plates.
(§5) Compounds ([…] in DMSO) were stored in 384-well plates, and last two columns (32 wells total) contained only DMSO. 200 nL of small compounds were transferred into the odorant plates before the assay using the Perkin-Elmer Janus workstation. The odorant plates were spun down to remove air bubbles, and placed on the FDSS6000 plate loader, and 5 μL of odorant solution was applied to the cell plate on the FDSS6000. Ca^2+ increase was monitored with fluorescence at 525 nm by excitation at 485 nm.

[2] = target: T2, OR2/OR7 (Anopheles gambiae, UniProt Q7QCC7+Q8WTE6); assay: Ca2+-imaging of stable HEK293T cell line OR2/OR7
T2 construct: Full-length cDNAs for mosquito (Anopheles gambiae) odorant receptor (OR1, OR2, OR7, OR8, OR28); expressed in transfected cells
T2 sequence (Q8WTE6 1-378): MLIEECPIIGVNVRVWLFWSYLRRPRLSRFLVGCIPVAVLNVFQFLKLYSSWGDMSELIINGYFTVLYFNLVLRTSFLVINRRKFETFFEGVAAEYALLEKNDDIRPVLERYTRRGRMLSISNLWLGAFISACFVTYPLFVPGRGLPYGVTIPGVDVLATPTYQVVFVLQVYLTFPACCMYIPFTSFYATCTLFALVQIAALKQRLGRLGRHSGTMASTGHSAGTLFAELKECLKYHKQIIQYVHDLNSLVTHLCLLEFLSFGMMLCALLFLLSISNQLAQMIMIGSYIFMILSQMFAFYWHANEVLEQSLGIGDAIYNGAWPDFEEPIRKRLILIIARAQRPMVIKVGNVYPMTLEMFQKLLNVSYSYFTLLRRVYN
T2 sequence (Q7QCC7 1-478): T1 sequence (Q7QCC7 1-478)
Method: as §1, §2, §3, §4, §5

[3] = target: OR10/OR7 (Anopheles gambiae, UniProt B5U0U7+Q7QCC7); assay: Ca2+-imaging of stable HEK293T cell line OR10/OR7; conditions: for inhibition at 4 µM: HEK-293T, read-out: Percent Inhibition OR10 OR7
Chain of OR10/OR7 (B5U0U7 entry or part of it, one chain of several): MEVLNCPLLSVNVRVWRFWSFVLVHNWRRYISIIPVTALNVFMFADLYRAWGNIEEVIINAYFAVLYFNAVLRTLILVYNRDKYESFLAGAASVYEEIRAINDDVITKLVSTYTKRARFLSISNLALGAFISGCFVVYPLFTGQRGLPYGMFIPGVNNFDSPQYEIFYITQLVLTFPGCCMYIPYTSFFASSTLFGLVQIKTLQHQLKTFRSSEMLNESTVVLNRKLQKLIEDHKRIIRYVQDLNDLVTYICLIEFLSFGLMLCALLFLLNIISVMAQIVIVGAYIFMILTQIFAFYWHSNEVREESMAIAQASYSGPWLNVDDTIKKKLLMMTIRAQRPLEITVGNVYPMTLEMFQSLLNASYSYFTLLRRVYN
Method: as §2
After one day of incubation, the transfected cells were transferred into 10 cm dishes with DMEM containing antibiotics as follows: • 0.5 μg/mL of blasticidin for OR1/OR7, OR2/OR7, OR8/OR7, OR10/OR7, OR28/OR7 • 0.2 μg/mL of puromycin for TRPM8.
as §4, §5

[4] = ligand 4-methyl phenol 30 μM, read-out: IC50 OR1 OR7
[5] = ligand 2-methyl phenol 30 μM, read-out: IC50 OR2 OR7
[6] = ligand indole 30 μM, read-out: IC50 OR10 OR7

SMILES	IC50 [1, 4] [nM]	IC50 [2, 5] [nM]	IC50 [3] [nM]	inhibition at 4 µM ([3]; compound applied at 4 μM) [%]	further results
CN(Cc1nccn1Cc1c(F)cccc1Cl)C(=O)C1CCCC1 [RU-I5]	< 2000	< 2000			IC50 [3, 6]: > 20000 nM
CSc1nc(NC(C)C)nc(NC(C)C)n1 [RU-T2]			2000 to 20000		IC50 [1]: 2000 to 20000 nM; IC50 [2]: 2000 to 20000 nM
O=C(C1CCCC1)N(Cc1nccn1CCc1c(F)cccc1Cl)C1CC1 [RU-I2]	< 2000	< 2000			IC50 [3, 6]: 2000 to 20000 nM
CC(C)Nc1nc(NC(C)C)nc(C(F)(F)F)n1 [RU-T8]	< 2000	< 2000	> 20000		
O=C(c1nccn1Cc1c(F)cccc1Cl)N(CC1CCCC1)C1CC1 [RU-I3]	< 2000	2000 to 20000			IC50 [3, 6]: 2000 to 20000 nM
CC(C)Nc1nc(Cl)nc(N(C)C(C)C)n1 [RU-T7]	< 2000	< 2000	> 20000		
CC(C)Nc1nc(Cl)nc(NC(C)C)n1 [RU-T1]	< 2000	< 2000	> 20000		
CCN(CC)C(=O)c1cccc(C)c1 [DEET, N,N-diethyl-m-toluamide, reference compound]					IC50 [1]: > 740000 nM; IC50 [2]: > 20000 nM; IC50 [3, 6]: > 50000 nM
CCNc1nc(Cl)nc(NC(C)C)n1 [RU-T5]			2000 to 20000		IC50 [1]: < 2000 nM; IC50 [2]: < 2000 nM
CC(C)Nc1nc(Cl)nc(NCc2ccccc2)n1 [RU-T9]	< 2000	> 20000	> 20000		
Cc1nc(NC(C)C)nc(NC(C)C)n1 [RU-T6]	2000 to 20000	> 20000	> 20000		
C=CCN(Cc1nccn1Cc1cccc(F)c1)C(=O)c1ccccc1F [RU-I1]	< 2000	< 2000			IC50 [3, 6]: 2000 to 20000 nM
CCNc1nc(NC(C)C)nc(SC)n1 [RU-T3]			2000 to 20000		IC50 [1]: > 220000 nM; IC50 [2]: 2000 to 20000 nM
COc1ccc(OCC(=O)N2CCOC(Cc3ccccc3)C2)cc1 (stereo not drawn) [RU-0050384]				< 25	
COCCN(Cc1c(-c2ccccc2)noc1N(C)C1CCCCC1)C(=O)c1ccccc1OC [RU-0037275]				< 25	
CN(C)c1ccc(C(=O)N2CCOC(COCc3ccccc3F)C2)cc1 (stereo not drawn) [RU-0050325]				< 25	

SMILES	IC50 [1, 4] [nM]	IC50 [2, 5] [nM]	IC50 [3] [nM]	inhibition at 4 µM ([3]; compound applied at 4 μM) [%]	further results
CCNc1nc(NCC)nc(SC)n1 [RU-T4]	2000 to 20000	20000 to 50000	20000 to 50000		
CCN(CC)C(=O)Oc1ccc2c(ccn2Cc2ccccc2Cl)c1NC(=O)CCCCC(=O)OC [RU-0075446]			< 100		inhibition at 4 µM [3]: > 75%
Cc1nn(-c2ccc(Cl)cc2)c(C)c1C(=O)NCc1ccccn1 [RU-0048608]				51 to 74	IC50 ([3]; Table B, read-out: IC50 OR10): > 1000 nM
Cc1ccccc1C(=O)N[C@@H]1CCCCC1NC(=O)C1CCN(C(=O)c2cc(C(F)(F)F)cc(C(F)(F)F)c2)CC1 (stereo partly drawn) [RU-0045778]				< 25	
CCN(CC)c1onc(-c2ccccc2)c1CN(CC1CCCO1)C(=O)c1ccco1 (stereo not drawn) [RU-0036855]				< 25	
CCCCCCCC(=O)N1CCCC(C(=O)NC2CCCC[C@H]2NC(=O)c2ccccc2C)C1 (stereo partly drawn) [RU-0045756]				< 25	
COc1ccccc1CCC(=O)N1CCC(CCC(=O)Nc2ccccc2)CC1 [RU-0032455]				< 25	
Cc1cccc(Cn2ccnc2CN(C(=O)c2ccccc2F)C2CCCCC2)c1 [RU-0047851]				> 75	IC50 ([3]; Table B, read-out: IC50 OR10): < 100 nM
CC(C)N(Cc1nccn1Cc1c(F)cccc1Cl)C(=O)c1ccc(Cl)cc1 [RU-0055364]				> 75	IC50 ([3]; Table B, read-out: IC50 OR10): 100 to 1000 nM
Cc1ccccc1C(=O)N[C@@H]1CCCCC1NC(=O)C1CCCN(S(=O)(=O)c2cc(Cl)ccc2Cl)C1 (stereo partly drawn) [RU-0045691]				26 to 50	
Fc1cccc(Cl)c1Cn1ccnc1CN(CC1CCCC1)C1CC1 [RU-I4]	< 2000	2000 to 20000			IC50 [3, 6]: > 20000 nM
Cc1ccccc1C(=O)N[C@@H]1CCCCC1NC(=O)C1CCN(C(=O)C23CC4CC(CC(C4)C2)C3)CC1 (stereo partly drawn) [RU-0045351]				< 25	
COCCNC(=O)c1ccc(CSc2nnc(-c3ccc(C)cc3)n2-c2ccccc2C)cc1 [RU-0053556]				51 to 74	IC50 ([3]; Table B, read-out: IC50 OR10): > 1000 nM
CCN(CC)c1onc(-c2ccc(F)cc2)c1CN(CCCOC)C(=O)c1ccc2c(c1)OCO2 [RU-0036983]				26 to 50	
CCNc1nc(NC(C)C)nc(N(C#N)Cc2ccccc2)n1 [RU-0015806]				26 to 50	IC50 ([3]; Table B, read-out: IC50 OR10): > 1000 nM
C=CCN(Cc1nccn1Cc1ccccc1F)C(=O)c1cccc(F)c1 [RU-0058232]				> 75	IC50 ([3]; Table B, read-out: IC50 OR10): < 100 nM
